{"source": "patent US8716237B2", "about": "“Methods for the treatment or prevention of hemorrhagic conditions” (University of Rochester, priority 2007, dated 2014)", "key": {"PAI-1 [1]": {"system": "PAI-1", "experiment": "PAI-1 mRNA expression in mouse embryonic fibroblasts (Q-PCR)", "format": "cell-based", "conditions": "Cyld−/− MEF cells; pretreatment with SB203580", "procedure": "(§1) Cells were cultured on 12-well plates and transfected with various expression plasmids, as described in Examples 1-15 and the Brief Description of the Drawings. All transient transfections were carried out in triplicate using TransIT-LT1 reagent (Minis) following the manufacturer's instructions. […] Transfected cells were pretreated with or without chemical inhibitors including SB203580 (1 μM) for 2 hours. S.p. or pneumolysin was then added to the transfected cells 42 hours after transfection. After 5 hours, the cells were harvested for either RNA extraction and real-time quantitative PCR analysis as described in the Examples or luciferase assay. Luciferase activity was normalized with respect to β-galactosidase activity using the Galacton-Plus substrate system (Tropix) following manufacturer's instruction. In all co-transfections with expression plasmids of signaling molecules, an empty vector was used as a control. […]\nTotal RNA was isolated with TRIzol reagent (Invitrogen) by following the manufacturer's instructions. Real-Time Quantitative RT-PCR analysis of PAI-1 and CYLD were performed as described in Jono et al., “NF-κB Is Essential for Induction of CYLD, the Negative Regulator of NF-κB: Evidence for a Novel Inducible Autoregulatory Feedback Pathway,” J. Biol. Chem. 279:36171-4 (2004), which is hereby incorporated by reference in its entirety. […]"}, "PAI-1 [2]": {"system": "PAI-1", "experiment": "PAI-1 mRNA expression in A549 cells (Q-PCR)", "format": "cell-based, human", "conditions": "SB203580 pretreatment (1 μM, 2 hours)", "procedure": "as §1, with “assay.” for “assay. Luciferase activity was normalized with respect to β-galactosidase activity using the Galacton-Plus substrate system (Tropix) following manufacturer's instruction. In all co-transfections with expression plasmids of signaling molecules, an empty vector was used as a control.”\nTotal RNA was isolated with TRIzol reagent (Invitrogen) by following the manufacturer's instructions. Real-Time Quantitative RT-PCR analysis of PAI-1 and CYLD were performed as described in Jono et al., “NF-κB Is Essential for Induction of CYLD, the Negative Regulator of NF-κB: Evidence for a Novel Inducible Autoregulatory Feedback Pathway,” J. Biol. Chem. 279:36171-4 (2004), which is hereby incorporated by reference in its entirety. […] Relative quantity of PAI-1 mRNA was obtained using comparative CT Method and was normalized by Cyclophilin and GAPDH as an endogenous control for human and mouse, respectively (Applied Biosystems)."}}}
{"smiles": "C[S+]([O-])c1ccc(-c2nc(-c3ccncc3)c(-c3ccc(F)cc3)[nH]2)cc1", "note": "(stereo not drawn) [SB203580]", "values": [{"measurement": "PAI-1 expression in cells treated with PLY", "setting": "PAI-1 [1]", "value": "reduced PAI-1 expression"}, {"measurement": "PAI-1 expression in cells treated with S. pneumoniae", "setting": "PAI-1 [1]", "value": "reduced PAI-1 expression"}, {"measurement": "S. pneumoniae-induced PAI-1 expression", "setting": "PAI-1 [2]", "value": "greatly reduced S. pneumoniae-induced PAI-1 expression"}]}
